Data set [1] in a line: Quantum yield measurements versus Acridine Yellow in EtOH. In kind it is physicochemical. The following applies: BDCCA library, Table 4; excitation 460 nm. In a few lines:
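Fluorescence quantum yield is relative to Acridine Yellow in EtOH (Φ 0.47), with excitation at 460 nm. Integrated emission at 510–700 nm was corrected for absorbance at the excitation wavelength and for solvent refractive index.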

Data set [2] can be described thus: Absorbance and fluorescence emission spectra (SpectraMax M2). The following applies: BDCCA library, Table 4. It is filed as physicochemical. In a few lines: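 Absorbance and emission maxima measured on a SpectraMax M2 spectrophotometer, which also gave quantum yield data; analysis in GraphPrism.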

For the molecule `CN(C)Cc1cn(-c2ccc3n2[B-](F)(F)[N+]2=C(N4CCCCC4)C=CC2=C3c2ccc(NC(=O)CCl)cc2)nn1` [BDCCA-2], in data set [1], the “φ (quantum yield)” value turned out to be 0.4%. Further, in data set [2], the “λmax Absorp.” value came out at 461 nm and the “λmax Emission” value was 586 nm.

On to `O=C(CCl)Nc1ccc(C2=C3C=CC(N4CCCCC4)=[N+]3[B-](F)(F)n3c2ccc3-n2cc(C3CC3)nn2)cc1` [BDCCA-4], for which, in data set [1], the “φ (quantum yield)” value was found to be 1.1%. In data set [2], the “λmax Absorp.” value is 467 nm and the “λmax Emission” value is reported as 577 nm.

For `O=C(CCl)Nc1ccc(C2=C3C=CC(N4CCCCC4)=[N+]3[B-](F)(F)n3c2ccc3-n2cc(C3CCCC3)nn2)cc1` [BDCCA-5], the “φ (quantum yield)” value in data set [1] was 0.9%. Further, in data set [2], the “λmax Absorp.” value was 468 nm and the “λmax Emission” value is 588 nm.

For `O=C(CCl)Nc1ccc(C2=C3C=CC(N4CCCCC4)=[N+]3[B-](F)(F)n3c2ccc3-n2cc(C3CCCCC3)nn2)cc1` [BDCCA-6], the “φ (quantum yield)” value in data set [1] is listed as 2.3%. In data set [2], the “λmax Absorp.” value was 467 nm and the “λmax Emission” value was 555 nm.

In the case of `O=C(CCl)Nc1ccc(C2=C3C=CC(N4CCCCC4)=[N+]3[B-](F)(F)n3c2ccc3-n2cc(CC3CCCC3)nn2)cc1` [BDCCA-7], the “φ (quantum yield)” value in data set [1] was 0.9%. In data set [2], the “λmax Absorp.” value is given as 468 nm and the “λmax Emission” value is 590 nm.

`O=C(CCl)Nc1ccc(C2=C3C=CC(N4CCCCC4)=[N+]3[B-](F)(F)n3c2ccc3-n2cc(CC3CCCCC3)nn2)cc1` [BDCCA-8]: in data set [1], the “φ (quantum yield)” value came out at 0.6%. For the same molecule, in data set [2], the “λmax Absorp.” value worked out at 468 nm and the “λmax Emission” value was 589 nm.

As for `O=C(CCl)Nc1ccc(C2=C3C=CC(N4CCCCC4)=[N+]3[B-](F)(F)n3c2ccc3-n2cc(-c3ccccc3)nn2)cc1` [BDCCA-9], the “φ (quantum yield)” value in data set [1] is on record as 1.1%. In data set [2], the “λmax Absorp.” value is recorded as 464 nm and the “λmax Emission” value is reported as 577 nm.

Turning to `Cc1ccc(-c2cn(-c3ccc4n3[B-](F)(F)[N+]3=C(N5CCCCC5)C=CC3=C4c3ccc(NC(=O)CCl)cc3)nn2)cc1` [BDCCA-10], the “φ (quantum yield)” value in data set [1] is recorded as 2.9%. In data set [2], the “λmax Absorp.” value amounted to 463 nm and the “λmax Emission” value is 558 nm.

As for `CC(C)(C)c1ccc(-c2cn(-c3ccc4n3[B-](F)(F)[N+]3=C(N5CCCCC5)C=CC3=C4c3ccc(NC(=O)CCl)cc3)nn2)cc1` [BDCCA-11], the “φ (quantum yield)” value in data set [1] is recorded as 1.3%. For the same molecule, in data set [2], the “λmax Absorp.” value is 464 nm and the “λmax Emission” value is listed as 587 nm.

`CCCCc1ccc(-c2cn(-c3ccc4n3[B-](F)(F)[N+]3=C(N5CCCCC5)C=CC3=C4c3ccc(NC(=O)CCl)cc3)nn2)cc1` [BDCCA-12]: the “φ (quantum yield)” value in data set [1] came to 1.6%. Further, in data set [2], the “λmax Absorp.” value amounted to 464 nm and the “λmax Emission” value was 552 nm.

As to `CN(C)c1ccc(-c2cn(-c3ccc4n3[B-](F)(F)[N+]3=C(N5CCCCC5)C=CC3=C4c3ccc(NC(=O)CCl)cc3)nn2)cc1` [BDCCA-13], the “φ (quantum yield)” value in data set [1] is on record as 0.1%. In data set [2], the “λmax Absorp.” value came to 467 nm and the “λmax Emission” value amounted to 627 nm.

`COc1cc(OC)cc(-c2cn(-c3ccc4n3[B-](F)(F)[N+]3=C(N5CCCCC5)C=CC3=C4c3ccc(NC(=O)CCl)cc3)nn2)c1` [BDCCA-14]: the “φ (quantum yield)” value in data set [1] is 0.8%. For the same molecule, in data set [2], the “λmax Absorp.” value is 463 nm and the “λmax Emission” value was 589 nm.

With `O=C(CCl)Nc1ccc(C2=C3C=CC(N4CCCCC4)=[N+]3[B-](F)(F)n3c2ccc3-n2cc(-c3ccc(OC(F)(F)F)cc3)nn2)cc1` [BDCCA-15], the “φ (quantum yield)” value in data set [1] came to 2.2%. In data set [2], the “λmax Absorp.” value came to 462 nm and the “λmax Emission” value was found to be 537 nm.

In the case of `O=C(CCl)Nc1ccc(C2=C3C=CC(N4CCCCC4)=[N+]3[B-](F)(F)n3c2ccc3-n2cc(-c3ccc(F)c(F)c3)nn2)cc1` [BDCCA-16], the “φ (quantum yield)” value in data set [1] came to 0.7%. For the same molecule, in data set [2], the “λmax Absorp.” value amounted to 462 nm and the “λmax Emission” value amounted to 581 nm.
